What was measured:
Rattus norvegicus [1] = species on record: Rattus norvegicus; test: Compound was tested in vitro for inhibitory activity against lipid peroxidation after 30 minutes; format: functional; conditions: 0.5 h
Rattus norvegicus [2] = species on record: Rattus norvegicus; test: Compound was tested in vitro for inhibitory activity against lipid peroxidation at concentration 100 uM; format: functional, organism-based

| SMILES | IC50 (Rattus norvegicus [1]) [µM] | inhibition (Rattus norvegicus [2]) [%] |
| --- | --- | --- |
| CC(=O)Oc1c(-c2ccccc2)c(-c2ccccc2)n2ccc(C(C)=O)cc12 | 5.3 | – |
| CC(=O)Oc1c(-c2ccccc2)c(-c2ccccc2)n2ccc(C(=O)c3ccccc3)cc12 | 2.5 | – |
| CC(=O)Oc1c(-c2ccccc2)c(-c2ccccc2)n2ncccc12 | 3.1 | – |
| COC(=O)Oc1c(-c2ccccc2)c(-c2ccccc2)n2ccc(C=O)cc12 | 2.6 | – |
| CC(=O)Oc1c(-c2ccccc2)c(-c2ccccc2)n2ccc(C=O)cc12 | 2.9 | – |
| O=Cc1ccn2c(-c3ccccc3)c(-c3ccccc3)c(OC(=O)Nc3ccccc3)c2c1 | 3.2 | – |
| CCCCCCCCCCCCCCCC(=O)Oc1c(-c2ccccc2)c(-c2ccccc2)n2ccc(C=O)cc12 | – | 9 |
| CC(=O)Oc1c(-c2ccccc2)c(-c2ccccc2)n2ccccc12 | 11.8 | – |
| CC(=O)Oc1c(-c2ccccc2)c(-c2ccccc2)n2cc(C(C)=O)ccc12 | 3.5 | – |
| COc1c(-c2ccccc2)c(-c2ccccc2)n2ccc(C=O)cc12 | 4.2 | – |
| CC(=O)Oc1c(-c2ccccc2)c(-c2ccccc2)n2ncc3ccccc3c12 | – | 28 |

Source: ChEMBL document CHEMBL1131390, “Inhibition of lipid peroxidation mediated by indolizines” (Bioorg Med Chem Lett, 1998)
